Earlier results on six compounds are cited in patent US20190328719A1, “METHODS OF TREATING DEVELOPMENTAL DISORDERS AND/OR SEIZURE DISORDERS WITH FLUPIRTINE” (Ovid Therapeutics Inc., priority 2016, published 2019).

By Cmax is commonly meant the peak of the concentration-time curve.

Structures can show the parent of a compound that is named as a salt. Where two headings read alike, the source gives them in different places.

For data set [1] the following is noted: cited from earlier work.
The conditions of data set [2]: cited from earlier work; for Cmax (without correction for Cmin): 14 days of administration.
The conditions of data set [3]: three-month efficacy study, insomnia; cited from earlier work.
For data set [4] the following is noted: patients with a history of drug abuse; cited from earlier work.
For data set [5] the following is noted: cited from earlier work; for plasma elimination half-life: healthy young volunteers, single dose.
The conditions of data set [6]: cited from earlier work. This is another data set of the same source.
For data set [7] the following is noted: cited from earlier work. This is another data set of the same source.
[8] abbreviates: dose range 200-400 mg three times daily.

As for `OC(c1ccccc1)(c1ccccc1)C1CCCCN1` (stereo not drawn) [pipradrol], the “effects of high doses” value in data set [1] is “uncoordinated activity and ataxia, followed by tremors and clonic convulsions”.

Take `CC(=O)[C@H]1CC[C@H]2[C@@H]3CC[C@H]4C[C@](C)(O)CC[C@]4(C)[C@H]3CC[C@]12C` [ganaxolone]: in data set [2] (50 mg group), the Cmin is 2.34 ng/mL and the “Cmax (without correction for Cmin)” value was 32 ng/mL. In addition, in data set [2] (200 mg group), the Cmin was 23.79 ng/mL and the “Cmax (without correction for Cmin)” value was 106 ng/mL. In addition, in data set [2] (500 mg group), the Cmin was 56.71 ng/mL and the “Cmax (without correction for Cmin)” value was 376 ng/mL. Further, in data set [2] (in vivo), the “AUC and Cmax with increasing dose” value was “linear and proportional increase”; the half-life result was “about 20 hours”. The Cmax in data set [2] (single 900 mg dose) was 293 ± 63.8 ng/mL.

As to `Oc1noc2c1CCNC2` [gaboxadol, 4,5,6,7-tetrahydroisoxazolo [5,4-c]pyridine-3-ol], the “effects in sleep onset and sleep maintenance” value in data set [3] was “failed to show significant effects in sleep onset and sleep maintenance”. The psychiatric adverse events entry in data set [4] was “steep increase in psychiatric adverse events”.

In the case of `CCOC(=O)Nc1ccc(NCc2ccc(F)cc2)nc1N` [flupirtine], in data set [5] (75 or 150 mg at 12 hour intervals), the “time to steady-state plasma concentrations” value is recorded as 2 days. The values for the plasma elimination half-life entry in data set [5] (intravenous), in data set [5] (oral) and in data set [5] (rectal) were “about 8.5 hours”, about 9.6 h and about 10.7 h, respectively. Also, the “half-life following intravenous administration” value in data set [5] (intravenous) is listed as “about 1.8 hours”. For the same compound, the “relation of plasma concentrations to dose” value in data set [5] (range of 50 to 300 mg) is given as “linearly related to dose”. The Bioavailability result in data set [5] (rectal dose, in comparison with intravenous flupirtine tartrate 80 mg) is reported as “about 72.5%”. Also, the “time until it appears in the plasma” value in data set [5] (single oral dose 100 mg or 200 mg, healthy volunteers) was 15 to 30 min. The “peak plasma concentration (Cmax)” value in data set [5] (single oral dose 100 mg) was “approximately 0.8 mg/L”; in data set [5] (single oral dose 200 mg), about 2000 ng/mL. For the same compound, the water solubility entry in data set [6] is on record as “poorly water soluble”.

Turning to `CCOC(=O)Nc1ccc(NCc2ccc(F)cc2)cc1N` [retigabine, N-[2-amino-4-(4-fluorobenzylamino)-phenyl] carbamic acid ethyl ester], in data set [7] (setting [8]), the between-subject variability is reported as 35-50% and the linearity of pharmacokinetics entry is given as “linear”. In data set [7] (in vivo), the “elimination half-lives (t/2)” value was 7 to 11 h and the median plasma half-life is 6 to 8 h. For the same compound, in data set [7] (relative to an intravenous dose), the Absolute oral bioavailability entry is recorded as “approximately 60%”.

As to `CCOC(=O)Nc1ccc(NCc2ccc(F)cc2)nc1N` [flupirtine maleate], the Cmax entry in data set [5] (rectal, flupirtine maleate 150 mg) is on record as “about 0.89 mg/L”. In addition, the water solubility result in data set [6] (listed as maleate salt) is reported as “water soluble”.
